According to patent publication US20240239788A1, “SMALL MOLECULE INHIBITORS OF KRAS G12D MUTANT” (Merck Sharp & Dohme LLC, priority 2021, published 2024):
Structures can show the parent of a compound that is named as a salt. Where two headings read alike, the source gives them in different places.

Columns and labels:
[1] = target: KRAS protein containing G12D mutation (Homo sapiens (Human), UniProt P01116, G12D); assay: SOS-catalyzed nucleotide exchange assay (GNE), TR-FRET; assay type: biochemical; conditions: biotinylated KRAS G12D, SOS and GTP, 60-minute incubation
KRAS protein containing G12D mutation, sequence (P01116 other isoform, or with tags, fused parts or gaps G12D (already in the parent)): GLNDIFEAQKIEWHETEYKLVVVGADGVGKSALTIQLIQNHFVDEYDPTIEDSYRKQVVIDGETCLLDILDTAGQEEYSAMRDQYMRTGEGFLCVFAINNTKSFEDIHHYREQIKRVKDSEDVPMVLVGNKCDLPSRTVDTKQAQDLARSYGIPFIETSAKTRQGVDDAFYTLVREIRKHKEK
Description: Compounds are added to this complex and then after a 60-minute incubation time the mixture is treated with SOS and unlabeled GTP. Small molecule inhibitors stabilize the Bodipy-GDP complex whereas the untreated protein rapidly exchanges Bodipy-GDP for unlabeled GTP resulting in reduced TR-FRET signal.
This solution is referred to as biotinylated KRAS G12D stock solution.

[2] = test system: AsPC-1 cells containing homozygous KRAS-G12D activating mutation; assay: Cellular phospho-ERK assay with 10% FBS (Examples 107a-256); assay type: cell-based
Description: 5% CO2 for 2 hours. […] Assay plates were read on a EnVision Multimode Plate Reader (PerkinElmer) and the ratio of p-Erk vs total Erk in each well was used as the final readout.

[3] = read-out: IC50 (nM) pERK (cell with FBS 10%), AsPC-1 cells, 10% fetal bovine serum, 2 hours, ratio of p-Erk vs total Erk
[4] = Homo sapiens, ASPC1, 2 h, read-out: IC50 (nM) pERK (cell with FBS 10%), AsPC-1 cells, 10% fetal bovine serum, 2 hours, ratio of p-Erk vs total Erk

SMILES: Cc1nc(N)c(C)c(-c2c(F)cc3c(N4CC5CCC(C4)N5)nc(OC[C@@]45CCCN4C[C@H](F)C5)nc3c2F)c1C(F)(F)F (single isomer, unassigned) [Ex. 191a]
- IC50 [1]: 26.5 nM
- IC50 [2, 3]: 288 nM

SMILES: C#Cc1cccc2cc(N)nc(-c3c(F)cc4c(N5CC6CCC(C5)N6)nc(OC[C@@]56CCCN5C[C@H](F)C6)nc4c3F)c12 (single isomer, unassigned) [Ex. 148b]
- IC50 [1]: 751 nM
- IC50 [2, 3]: 8550 nM

SMILES: Cc1cc(N)nc(-c2c(Cl)cc3c(N4C[C@H]5CC[C@@](C)(C4)N5)nc(OC[C@@]45CCCN4C[C@H](F)C5)nc3c2F)c1C(F)(F)F [Ex. 238a, 6-(6-chloro-8-fluoro-2-(((2R,7aS)-2-fluorotetrahydro-1H-pyrrolizin-7a(5H)-yl)methoxy)-4-((1S,5R)-1-methyl-3,8-diazabicyclo[3.2.1]octan-3-yl)quinazolin-7-yl)-4-methyl-5-(trifluoromethyl)pyridin-2-amine]
- IC50 [1]: 25.7 nM
- IC50 [2, 4]: 1590 nM

SMILES: C[C@]12CC[C@H](CN(c3nc(OC[C@@H]4CCNC4)nc4c(F)c(-c5cc(O)cc6ccccc56)c(Cl)cc34)C1)N2 [Example 122, 4-(6-chloro-8-fluoro-4-((1S,5R)-1-methyl-3,8-diazabicyclo[3.2.1]octan-3-yl)-2-(((R)-pyrrolidin-3-yl)methoxy)quinazolin-7-yl)naphthalen-2-ol, TFA]
- IC50 [1]: 964 nM
- IC50 [2, 4]: 30000 nM

SMILES: N#Cc1c(N)sc2c(F)ccc(-c3c(F)cc4c(N5C[C@H]6CC[C@@H](C5)N6)nc(OC[C@@]56CCCN5C[C@H](F)C6)nc4c3F)c12 (single isomer, unassigned) [Ex. 144b]
- IC50 [1]: 20 nM
- IC50 [2, 3]: 392 nM

SMILES: Nc1cnc(C(F)(F)F)c(-c2c(F)cc3c(N4C[C@H]5CC[C@@H](C4)N5)nc(OC[C@@]45CCCN4C[C@H](F)C5)nc3c2F)n1 [Ex. 134, 6-(4-((1R,5S)-3,8-diazabicyclo[3.2.1]octan-3-yl)-6,8-difluoro-2-(((2R,7aS)-2-fluorotetrahydro-1H-pyrrolizin-7a(5H)-yl)methoxy)quinazolin-7-yl)-5-(trifluoromethyl)pyrazin-2-amine]
- IC50 [1]: 870 nM
- IC50 [2, 4]: 13600 nM

SMILES: Cc1nc(N)c(F)c(-c2c(F)cc3c(N4CC5CCC(C4)N5)nc(OC[C@@]45CCCN4C[C@H](F)C5)nc3c2F)c1C(F)(F)F (single isomer, unassigned) [Ex. 151a]
- IC50 [1]: 1930 nM
- IC50 [2, 3]: 3950 nM

SMILES: Nc1cc(F)c(C(F)(F)F)c(-c2c(F)cc3c(N4CC5CCC(C4)N5)nc(OC[C@@]45CCCN4C[C@H](F)C5)nc3c2F)c1F (single isomer, unassigned) [Ex. 145a]
- IC50 [1]: 1270 nM
- IC50 [2, 3]: 19400 nM

SMILES: C[C@]12CCC(CN(c3nc(OC[C@]4(CN5CCC(CO)C5)CC4(F)F)nc4c(F)c(-c5cc(O)cc6cccc(Cl)c56)c(F)cc34)C1)N2 (mixture of isomers) [Ex. 218, 5-chloro-4-(2-(((1R)-2,2-difluoro-1-((3-(hydroxymethyl)pyrrolidin-1-)-methyl)cyclopropyl)methoxy)-6,8-difluoro-4-((1S,5R)-1-methyl-3,8-diazabicyclo[3.2.1]octan-3-yl)quinazolin-7-yl)naphthalen-2-ol]
- IC50 [1]: 6.54 nM
- IC50 [2, 4]: 1550 nM

SMILES: C[C@]12CC[C@H](CN(c3nc(OC[C@@]45CCCN4C[C@H](F)C5)nc4c(F)c(-c5cncc6cccc(Cl)c56)c(F)cc34)C1)N2 (single isomer, unassigned) [Ex. 167]
- IC50 [1]: 414 nM
- IC50 [2, 4]: 8440 nM

SMILES: CC(O)(COc1nc(N2CC3CC[C@@](C)(C2)N3)c2cc(F)c(-c3cc(O)cc4cccc(Cl)c34)c(F)c2n1)CN1CC[C@@H](F)C1 (single isomer, unassigned) [Ex. 209]
- IC50 [1]: 46.1 nM
- IC50 [2, 4]: 2910 nM

SMILES: Cc1cc2[nH]ncc2c(-c2c(F)cc3c(N4CC5CCC(C4)N5)nc(OC[C@@]45CCCN4C[C@H](F)C5)nc3c2F)c1C(F)(F)F [Ex. 140, 4-((1R,5S)-3,8-diazabicyclo[3.2.1]octan-3-yl)-6,8-difluoro-2-(((2R,7aS)-2-fluorotetrahydro-1H-pyrrolizin-7a(5H)-yl)meth-oxy)-7-(6-methyl-5-(trifluoromethyl)-1H-indazol-4-yl)quin-azoline, TFA]
- IC50 [1]: 3.88 nM
- IC50 [2, 4]: 113 nM

SMILES: C[C@]12CC[C@H](CN(c3nc(OCC4(CN5CCCC(O)(C(F)(F)F)C5)CC4)nc4c(F)c(-c5cc(O)cc6cccc(Cl)c56)c(F)cc34)C1)N2 (mixture of isomers) [Ex. 206, rac-1-((1-(((7-(8-chloro-3-hydroxynaphthalen-1-yl)-6,8-difluoro-4-((1S,5R)-1-methyl-3,8-diazabicyclo-[3.2.1]octan-3-yl)quinazolin-2-yl)oxy)methyl)cyclo-propyl)methyl)-3-(trifluoromethyl)piperidin-3-ol]
- IC50 [1]: 1340 nM
- IC50 [2, 4]: 30000 nM

SMILES: Cc1cc2[nH]nc(C#N)c2c(-c2c(F)cc3c(N4C[C@H]5CC[C@@H](C4)N5)nc(OC[C@@]45CCCN4C[C@H](F)C5)nc3c2F)c1C(F)(F)F (single isomer, unassigned) [227b]
- IC50 [1]: 1.02 nM
- IC50 [2, 3]: 32.6 nM

SMILES: C#Cc1c(F)ccc2cc(O)cc(-c3c(F)cc4c(N5CC6CC[C@@](C)(C5)N6)nc(OC[C@@]56CCCN5C[C@H](F)C6)nc4c3F)c12 (single isomer, unassigned) [Ex. 177b]
- IC50 [1]: 51.7 nM
- IC50 [2, 3]: 588 nM

SMILES: C[C@]12CCC(CN(c3nc(OC[C@@]45CCCN4C[C@H](F)C5)nc4c(F)c(-c5cc(O)cc(Cl)c5C(F)(F)F)c(F)cc34)C1)N2 (single isomer, unassigned) [Ex. 183a]
- IC50 [1]: 347 nM
- IC50 [2, 3]: 6070 nM

SMILES: C#Cc1c(F)ccc2cc(N)nc(-c3c(F)cc4c(N5C[C@H]6CC[C@@H](C5)N6)nc(OC[C@@]56CCCN5C[C@H](F)C6)nc4c3F)c12 (single isomer, unassigned) [252a]
- IC50 [1]: 0.85 nM
- IC50 [2, 4]: 64.3 nM

SMILES: C[C@]12CCC(CN(c3nc(OCC45CCCN4CC(C(F)F)C5)nc4c(F)c(-c5cc(O)cc6cccc(Cl)c56)c(F)cc34)C1)N2 (single isomer, unassigned) [Ex. 173-1b]
- IC50 [1]: 22.1 nM
- IC50 [2, 3]: 2890 nM

SMILES: C#Cc1c(F)ccc2cccc(-c3c(F)cc4c(N5CC6CCC(C5)N6)nc(OC[C@@]56CCCN5[C@H](CO)CC6)nc4c3F)c12 (single isomer, unassigned) [Ex. 142]
- IC50 [1]: 1.57 nM
- IC50 [2, 4]: 384 nM

SMILES: Cc1nc(N)c(C)c(-c2c(F)cc3c(N4CC5CCC(C4)N5)nc(OC[C@@]45CCCN4C[C@H](F)C5)nc3c2F)c1C(F)(F)F (single isomer, unassigned) [Ex. 191b]
- IC50 [1]: 2840 nM
- IC50 [2, 3]: 30000 nM

SMILES: C#Cc1cccc2nc(N)cc(-c3c(F)cc4c(N5CC6CCC(C5)N6)nc(OC[C@@]56CCCN5C[C@H](F)C6)nc4c3F)c12 (single isomer, unassigned) [Ex. 203a]
- IC50 [1]: 380 nM
- IC50 [2, 3]: 3020 nM

SMILES: Cc1cc2[nH]nc(C#N)c2c(-c2c(F)cc3c(N4C[C@H]5CC[C@@H](C4)N5)nc(OC[C@@]45CCCN4C[C@H](F)C5)nc3c2F)c1C(F)F [compound 254, 4-(4-((1R,5S)-3,8-diazabicyclo[3.2.1]octan-3-yl)-6,8-difluoro-2-(((2R,7aS)-2-fluorotetrahydro-1H-pyrrolizin-7a(5H)-yl)methoxy)quinazolin-7-yl)-5-(difluoromethyl)-6-methyl-1H-indazole-3-carbonitrile]
- IC50 [1]: 0.77 nM
- IC50 [2, 4]: 80.3 nM

SMILES: CN(C)CC1(COc2nc(N3C[C@H]4CC[C@@](C)(C3)N4)c3cc(F)c(-c4cc(O)cc5ccccc45)c(F)c3n2)CC1 [Example 115, 4-(2-((1-((dimethylamino)methyl)cyclopropyl)methoxy)-6,8-difluoro-4-((1S,5R)-1-methyl-3,8-diazabicyclo [3.2.1]octan-3-yl)quinazolin-7-yl) naphthalen-2-ol]
- IC50 [1]: 10.5 nM
- IC50 [2, 4]: 1470 nM

SMILES: C#Cc1ccc(F)c2cccc(-c3c(F)cc4c(N5C[C@H]6CC[C@@](C)(C5)N6)nc(OC[C@@]56CCCN5C[C@H](F)C6)nc4c3F)c12 [Ex. 196, 7-(8-ethynyl-5-fluoro-naphthalen-1-yl)-6,8-difluoro-2-(((2R,7aS)-2-fluorotetrahydro-1H-pyrrolizin-7a(5H)-yl)-methoxy)-4-((1S,5R)-1-methyl-3,8-diaza-bicyclo[3.2.1]octan-3-yl)quinazoline]
- IC50 [1]: 45.7 nM
- IC50 [2, 4]: 3410 nM

SMILES: CO[C@@H]1CCN(C[C@@]2(COc3nc(N4CC5CC[C@@](C)(C4)N5)c4cc(F)c(-c5cc(O)cc6cccc(Cl)c56)c(F)c4n3)CC2(F)F)C1 (single isomer, unassigned) [Ex. 215b]
- IC50 [1]: 429 nM
- IC50 [2, 3]: 2370 nM

SMILES: C[C@]12CCC(CN(c3nc(OCC45CCCN4CC(C(F)F)C5)nc4c(F)c(-c5cc(O)cc6cccc(Cl)c56)c(F)cc34)C1)N2 (single isomer, unassigned) [Ex. 173-2a]
- IC50 [1]: 266 nM
- IC50 [2, 3]: 10200 nM

SMILES: CCc1cnn2cc(O)cc(-c3c(F)cc4c(N5C[C@H]6CC[C@@](C)(C5)N6)nc(OC[C@@]56CCCN5C[C@H](F)C6)nc4c3F)c12 [compound 229, 4-(6,8-difluoro-2-(((2R,7aS)-2-fluorotetrahydro-1H-pyrrolizin-7a(5H)-yl)methoxy)-4-((1S,5R)-1-methyl-3,8-diazabicyclo[3.2.1]octan-3-yl)quinazolin-7-yl)-3-ethylpyrazolo[1.5-a]pyridin-6-ol]
- IC50 [1]: 98.5 nM
- IC50 [2, 3]: 1740 nM

SMILES: Nc1cc(-c2c(F)cc3c(N4CC5CCC(C4)N5)nc(OC[C@@]45CCCN4C[C@H](F)C5)nc3c2F)c2c(Cl)cccc2n1 (single isomer, unassigned) [Ex. 231a]
- IC50 [1]: 1490 nM
- IC50 [2, 3]: 9300 nM

SMILES: Oc1cc(-c2c(F)cc3c(N4CC5CCC(C4)N5)nc(OC[C@@]45CCCN4C[C@H](F)C5)nc3c2F)c2c(Cl)cccc2c1 (single isomer, unassigned) [Ex. 160b]
- IC50 [1]: 367 nM
- IC50 [2, 3]: 12500 nM
